Measured values reported in US20030186888A1, “Diastereo analog of peptide SPFK-amide with selective anti-microbial activity and a method thereof” (priority 2002, published 2003).
“Also recorded” adds a separate entry of the source. Square brackets hold non-standard residues; d marks the D form. Peptide text beside a SMILES is read from it.

Assays:
Type in all cases: cell-based
rat erythrocytes = tested on: rat erythrocytes
Description: In further embodiment of the present invention, hemolytic activity of the peptides was assessed on freshly isolated rat erythrocytes. Heparinized rat blood in saline was initially centrifuged at 1000×g for 10 min to remove the buffy coat. The erythrocyte suspension was further washed thrice with 5 mM Hepes, pH 7.4 containing 150 mM NaCl. Aliquots of cell suspension ( 10^6 cells) in eppendorf tubes were incubated with the peptide in […]° C. for 30 min with gentle mixing. The tubes were then centrifuged and the absorbance of the supernatants was measured at 540 nm. The lysis obtained with 1% triton X 100 was taken as 100%. FIG. 5. Hemolysis of rat erythrocytes as a function of peptide concentration concentration Erythrocytes (-10^6/ml) were incubated in Hepes buffered isotonic saline containing various concentrations of SPFK analogs. SPFK (A). Other symbols same as that in FIG. 1.

microorganisms tested = test: Antimicrobial activity (growth inhibition, MIC); details: growth of the microorganisms tested
Description: (§1) In further embodiment of the present invention, for determining antimicrobial activity, antimicrobial activity was assayed as follows: Different concentrations of peptides were added to 1 ml of synthetic medium [KH2PO4, 10.5 g; K2HPC>4, 4.5 g; (NH4)2SO4, 1 g; MgSO4, 0.1 g; L-arginine, 0.1 g and glucose 1% for one litre of medium] for E. coli or nutrient broth for other microorganisms, containing an inocula of the test organism adjusted to ˜10^6 CFU/ml. Microbial growth was determined by monitoring the increase in ODeoo after incubating under aerobic conditions at 37° C. for 6-8 h (30° C. for P. aeruginosa). The bactericidal activity of the peptides was determined by plating suitably diluted cultures after incubation with the peptides on nutrient agar plates. The plates were incubated at 37° C. for 18 h for colony counting. Outer membrane permeabilization assays were done by fluorescent monitoring of uptake of N-phenyl-1-N-naphthyl amine (NPN) (26). […] The excitation monochromator was set at 350 nm and emission at 420 nm was continuously monitored after addition of the peptide from an aqueous stock solution. […] Inner membrane permeability of E. coli W 160.37 was monitored by measuring the p-galactosidase activity in preinduced cells (with 5×10′^4 M IPTG), in the presence of different concentration of the peptide using 0-nitro phenyl-3-D-galactoside (ONPG)(27).

E. coli = test: Bactericidal activity by plating and colony counting; details: on E. coli
Description: as §1

| SMILES | hemolytic activity (in words) (rat erythrocytes) | antimicrobial activity / MIC (in words) (microorganisms tested) | bactericidal concentration (E. coli) | bacteriostatic concentration (E. coli) |
| --- | --- | --- | --- | --- |
| CC[C@H](C)[C@H](NC(=O)[C@H](Cc1c[nH]c2ccccc12)NC(=O)[C@H](CCCCN)NC(=O)[C@H](CO)NC(=O)[C@@H](CC(C)C)NC(=O)[C@H](Cc1ccccc1)NC(=O)[C@@H](NC(=O)[C@H](CCCCN)NC(=O)[C@@H](CC(C)C)NC(=O)[C@H](CC(C)C)NC(=O)[C@H](CCCCN)NC(=O)[C@@H]1CCCN1)[C@@H](C)O)C(=O)NCC(=O)O [DSac] (H-PKL[dL]KTF[dL]SKWIG-OH) | very little hemolytic activity | – | – | – |
| CC[C@H](C)[C@H](NC(=O)[C@H](Cc1c[nH]c2ccccc12)NC(=O)[C@H](CCCCN)NC(=O)[C@H](CO)NC(=O)[C@@H](CC(C)C)NC(=O)[C@H](Cc1ccccc1)NC(=O)[C@@H](NC(=O)[C@H](CCCCN)NC(=O)[C@@H](CC(C)C)NC(=O)[C@H](CC(C)C)NC(=O)[C@H](CCCCN)NC(=O)[C@@H]1CCCN1)[C@@H](C)O)C(=O)NCC(N)=O [DSam] (H-PKL[dL]KTF[dL]SKWIG-NH2; N-terminus assumed) | – | exhibits activity with MIC's comparable to that of SPFK and its retro isomers; also recorded: MICs comparable to that of SPFK and the retro analogs | > 50 µg/mL | 30 µg/L |
